Experimental data from US10688084B2 (priority 2016, dated 2020).
Where two headings read alike, the source gives them in different places.

Key:
cyclooxygenase (COX) = assay: COX activity assay (fluorometric kit, peroxidase activity) with skin fibroblast (HSF) cell lysate; assay type: biochemical; settings: tested in presence of SC560 or celecoxib
Wistar rats [1] = assay type: in vivo
Experimental: In the study of analgesic properties of the formula I compound, were taken female and male Wistar rats aged 6-7 weeks with a body mass of 180-220 g. The number of animals in each group was 10.
[…] inflammation was modeled in rats by subplantar administration of 0.1 ml of a 1% solution of carrageenin (a sulfated polysaccharide from Irish sea moss) into the right hind paw. The substance was administered intragastrically using a gastric probe.
Inflammatory hyperalgesia (increased pain sensitivity of inflamed tissues in rats) was caused by carrageenin and was assessed by decrease of the pain sensitivity threshold—PST (by PST difference) to mechanical irritation (squeezing) of the paw tissue of the animal before the introduction of carrageenin and 3 hours after it. The measurement was performed on the inflamed paw. Used analgesimeter Ugo Basile S.R.L. (Italy) provides a gradual increased afterload on the rat's inflamed paw until a pain reaction appears (assessed by squeaking of animal or withdrawing the paw). The analyte was administered 2 h after carrageenin administration. […] An increase in the pain response threshold under the influence of the substances under study was expressed in an increase in the force of compression of the limb and characterized the intensity of the analgesic effect of the preparation. After the experiment, animals were euthanized by carbon dioxide inhalation method.
The introduction to rats was carried out in the amount of no more than 1 ml/100 g. The concentration of the resulting solution was 5 mg/ml.
(§1) To prepare a dose of 20 mg/kg, 40 ml of solution with a concentration of 5 mg/ml (50 mg/kg) were taken, transferred to a 100 ml measuring flask with accuracy class A, adjusted to 100 ml with 0.5% water solution of Tween-80 and the suspension was dispersed to a homogeneous consistency using a dispersant.
To prepare a dose of 10 mg/kg, 20 ml of solution with a concentration of 5 mg/ml (50 mg/kg) were taken, transferred to a 100 ml measuring flask with accuracy class A, adjusted to 100 ml with 0.5% aqueous solution of Tween-80 and the suspension was stirred to a homogeneous consistency with a magnetic stirrer MR Hei-Standard (Heidolph, Germany).
as §1, with “5” for “20”, “[…]” for “40”, “stirred” for “dispersed”, “with” for “using”, “magnetic stirrer.” for “dispersant.”

Wistar rats [2] = settings: for Number of animals in the group/number of dead animals / LD10 / LD16 / LD84: rat; for Number of animals in the group/number of dead animals: 14 days; for LD10 / LD16 / LD84: intragastric
Experimental: The experiment was performed according to the fixed dose method in Wistar rats of both sexes, 6 animals per group. […] The solvent used was a 0.5% Tween-80 solution (Tween 80—polyoxyethylene, a derivative of sorbitan and oleic acid, a commercially available polymer), which was prepared by dissolving 0.5 g of Tween-80 in 100 ml of distilled water.
The introduction was carried out to animals deprived of food (for a period of not less than 8 hours) with free access to water. The volume of administration was calculated individually for each animal, based on the body mass recorded immediately before the introduction of the substance. Access to the feed was renewed an hour after the introduction. Animals were observed individually after administration for 30 minutes, then at least once per hour for 4 hours, then daily once a day for 14 days. Body mass was recorded immediately before the administration of the preparation to calculate the volume of administration, then once every two days. If the animal died during the study, the time of death was determined and documented as accurately as possible. The animal was weighed and dissected as soon as possible. Dying animals were weighed, euthanized and dissected. Animals were euthanized by inhalation of carbon dioxide. Toxic doses LD10, LD16, LD50 and LD84 were calculated using probit analysis with IBM SPSS Statistics software.
At the end of the experiment, euthanasia and pathomorphological dissection of control and experimental animals were performed.

Wistar rats [3] = assay: Gastric toxicity (ulcerogenic effect), single intragastric administration, 4-point scale; assay type: in vivo, rat; settings: for Gastrotoxic effect (averaged), points: 2000 mg/kg single intragastric, 3 hours
Experimental: In the study of gastric toxicity were taken female and male Wistar rats aged 6-7 weeks, with a body mass of 180-220 g. The number of animals in each group was 10.
Three hours after the administration of the suspension of the test substance at a dose of 2000 mg/kg (in 0.5% aqueous solution of Tween-80), the animals were euthanized; their stomachs were removed, dissected along the lesser curvature, and washed in physiological solution to remove the contents.
Evaluation of gastric toxicity was performed on a 4-point scale:
1—single minor injuries (1 or 2 point hemorrhages);
2—multiple injuries (erosion, spot hemorrhages);
3—significant and multiple injuries of the mucosa (erosion, hemorrhage);
4—gross injuries covering the entire surface of the mucosa (massive hemorrhages, erosion, perforations).
According to the results of the assessment, UD50 was determined—the dose of the tested substance causing gastrotoxic (ulcerogenic) effect corresponding to 2 points.
The introduction to rats is carried out in the amount of no more than 5 ml/200 g.
Animals were euthanized by carbon dioxide inhalation method.
At a single introduction of formula I compound at a dose of 2000 mg/kg, the gastrotoxic effect corresponded to an average of 0.6 points in male rats and 0.4 in females (Table 4).

**Q.** With `COc1ccc2cc([C@H](C)C(=O)OCc3cnc(C)c(OC(=O)[C@@H](C)c4ccc5cc(OC)ccc5c4)c3COC(=O)[C@@H](C)c3ccc4cc(OC)ccc4c3)ccc2c1` [Compound of formula I, 3-((S)-2-(6-methoxynaphth-2-yl)propanoiloxy)-4,5-bis (((S)-2-(6-methoxinaphtht-2-yl)propanoiloxy)methyl)-2-methylpyridinium (S)-2-(6-methoxynaphth-2-yl) propanoate] as the compound, how does the COX isoform preference (cyclooxygenase (COX)) read?
**A.** Its COX isoform preference is “preferential inhibitory activity against the isoform of COX-2”.

**Q.** What about the “Analgesic effect, total/analgesic effect” value (Wistar rats [1]; females, 5 mg/kg) of the same compound?
**A.** Its value is 10/9.

**Q.** What about the “Paw volume 0 hours” value (Wistar rats [1]; females, 5 mg/kg) of the same compound?
**A.** Its value is 3.9 ± 1.4.

**Q.** And the “Paw volume 3 hours” value (Wistar rats [1]; females, 5 mg/kg)?
**A.** The value was 7.2 ± 3.2.

**Q.** What about the “Analgesic effect, %” value (Wistar rats [1]; females, 5 mg/kg, control = 100.0) of the same compound?
**A.** Its value is 282.0 ± 125.9%.

**Q.** What about the “Analgesic effect, total/analgesic effect” value (Wistar rats [1]; females, 10 mg/kg) of the same compound?
**A.** Its value is 10/8.

**Q.** And the “Paw volume 0 hours” value (Wistar rats [1]; females, 10 mg/kg)?
**A.** The value was 4.3 ± 2.2.

**Q.** And the “Paw volume 3 hours” value (Wistar rats [1]; females, 10 mg/kg)?
**A.** Its value is 10.5 ± 7.2.

**Q.** And the “Analgesic effect, %” value (Wistar rats [1]; females, 10 mg/kg, control = 100.0)?
**A.** Its value is 408.2 ± 279.3%.

**Q.** And the “Analgesic effect, total/analgesic effect” value (Wistar rats [1]; females, 20 mg/kg)?
**A.** Its value is 10/9.

**Q.** And the “Paw volume 0 hours” value (Wistar rats [1]; females, 20 mg/kg)?
**A.** Its value is 4.6 ± 3.3.

**Q.** And the “Paw volume 3 hours” value (Wistar rats [1]; females, 20 mg/kg)?
**A.** The value was 9.1 ± 7.4.

**Q.** And the “Analgesic effect, %” value (Wistar rats [1]; females, 20 mg/kg, control = 100.0)?
**A.** The value was 353.5 ± 289.7%.

**Q.** And the “Analgesic effect, total/analgesic effect” value (Wistar rats [1]; females, 50 mg/kg)?
**A.** Its value is 10/7.

**Q.** What about the “Paw volume 0 hours” value (Wistar rats [1]; females, 50 mg/kg) of the same compound?
**A.** Its value is 8.9 ± 5.7.

**Q.** And the “Paw volume 3 hours” value (Wistar rats [1]; females, 50 mg/kg)?
**A.** The value was 12.4 ± 6.5.

**Q.** What about the “Analgesic effect, %” value (Wistar rats [1]; females, 50 mg/kg, control = 100.0) of the same compound?
**A.** The value was 484.4 ± 251.8%.

**Q.** What about the “Dose at which a pronounced anesthetic effect is exhibited” value (Wistar rats [1]; intragastric) of the same compound?
**A.** The value was 5 mg/kg.

**Q.** What about the “Analgesic effect, total/analgesic effect” value (Wistar rats [1]; males, 5 mg/kg) of the same compound?
**A.** Its value is 10/7.

**Q.** And the “Analgesic effect, total/analgesic effect” value (Wistar rats [1]; males, 10 mg/kg)?
**A.** Its value is 10/10.

**Q.** And the “Analgesic effect, total/analgesic effect” value (Wistar rats [1]; males, 20 mg/kg)?
**A.** Its value is 10/9.

**Q.** And the “Analgesic effect, total/analgesic effect” value (Wistar rats [1]; males, 50 mg/kg)?
**A.** The value was 10/8.

**Q.** What about the “Analgesic effect, %” value (Wistar rats [1]; rat, in vivo, 5 mg/kg) of the same compound?
**A.** The value was 259.9 ± 229.7%.

**Q.** What about the “Paw volume 0 hours” value (Wistar rats [1]; rat, in vivo, 5 mg/kg) of the same compound?
**A.** Its value is 4.4 ± 2.7.

**Q.** What about the “Paw volume 3 hours” value (Wistar rats [1]; rat, in vivo, 5 mg/kg) of the same compound?
**A.** The value was 5.5 ± 2.5.

**Q.** What about the “Analgesic effect, %” value (Wistar rats [1]; rat, in vivo, 10 mg/kg) of the same compound?
**A.** Its value is 453.7 ± 159.9%.

**Q.** What about the “Paw volume 0 hours” value (Wistar rats [1]; rat, in vivo, 10 mg/kg) of the same compound?
**A.** The value was 4.2 ± 2.4.

**Q.** What about the “Paw volume 3 hours” value (Wistar rats [1]; rat, in vivo, 10 mg/kg) of the same compound?
**A.** Its value is 12.0 ± 4.6.

**Q.** And the “Analgesic effect, %” value (Wistar rats [1]; rat, in vivo, 20 mg/kg)?
**A.** Its value is 418.1 ± 215.7%.

**Q.** And the “Paw volume 0 hours” value (Wistar rats [1]; rat, in vivo, 20 mg/kg)?
**A.** Its value is 6.4 ± 5.7.

**Q.** What about the “Paw volume 3 hours” value (Wistar rats [1]; rat, in vivo, 20 mg/kg) of the same compound?
**A.** The value was 12.0 ± 6.2.

**Q.** What about the “Analgesic effect, %” value (Wistar rats [1]; rat, in vivo, 50 mg/kg) of the same compound?
**A.** The value was 367.9 ± 220.1%.

**Q.** What about the “Paw volume 0 hours” value (Wistar rats [1]; rat, in vivo, 50 mg/kg) of the same compound?
**A.** Its value is 3.4 ± 2.3.

**Q.** What about the “Paw volume 3 hours” value (Wistar rats [1]; rat, in vivo, 50 mg/kg) of the same compound?
**A.** The value was 10.6 ± 6.3.

**Q.** What about the Dead animals (Wistar rats [2]; 5000 mg/kg intragastric, female, three days later) of the same compound?
**A.** Its Dead animals is 1 rat.

**Q.** What about the “Clinical observation after administration” value (Wistar rats [2]; 5000 mg/kg intragastric, symptom disappeared in 20-30 minutes) of the same compound?
**A.** The value was “slight inhibition of the activity of the animal”.

**Q.** What about the Body mass increase (Wistar rats [2]; 5000 mg/kg, 2 days after start) of the same compound?
**A.** Its Body mass increase is 1-4%.

**Q.** And the Body mass increase (Wistar rats [2]; 5000 mg/kg, 4 days after start)?
**A.** The Body mass increase was 2-6%.

**Q.** And the Body mass increase (Wistar rats [2]; 5000 mg/kg, eighth day)?
**A.** The Body mass increase was 2-8%.

**Q.** And the Autopsy findings (Wistar rats [2]; 5000 mg/kg, end of experiment)?
**A.** Its Autopsy findings is “No changes were observed”.

**Q.** What about the Body mass increase (Wistar rats [2]; 5000 mg/kg, end of the experiment) of the same compound?
**A.** Its Body mass increase is 5-13%.

**Q.** What about the “Hazard class (GOST 12.1.007-76)” value (Wistar rats [2]; intragastric administration) of the same compound?
**A.** Its value is 4th hazard class.

**Q.** What about the “Number of animals in the group/number of dead animals” value (Wistar rats [2]; females, 5000 mg/kg intragastric) of the same compound?
**A.** The value was 6/1.

**Q.** What about the LD10 (Wistar rats [2]; females) of the same compound?
**A.** The LD10 was >5000.

**Q.** What about the LD16 (Wistar rats [2]; females) of the same compound?
**A.** Its LD16 is >5000.

**Q.** What about the LD84 (Wistar rats [2]; females) of the same compound?
**A.** The LD84 was >5000.

**Q.** What about the “Number of animals in the group/number of dead animals” value (Wistar rats [2]; males, 5000 mg/kg intragastric) of the same compound?
**A.** The value was 6/0.

**Q.** And the LD10 (Wistar rats [2]; males)?
**A.** The LD10 was >5000.

**Q.** And the LD16 (Wistar rats [2]; males)?
**A.** The LD16 was >5000.

**Q.** What about the LD84 (Wistar rats [2]; males) of the same compound?
**A.** Its LD84 is >5000.

**Q.** And the UD50 (Wistar rats [3]; females)?
**A.** Its UD50 is >2000 mg/kg.

**Q.** What about the “Gastrotoxic effect (averaged), points” value (Wistar rats [3]; females) of the same compound?
**A.** The value was 0.4 points.

**Q.** What about the UD50 (Wistar rats [3]; males) of the same compound?
**A.** Its UD50 is >2000 mg/kg.

**Q.** And the “Gastrotoxic effect (averaged), points” value (Wistar rats [3]; males)?
**A.** Its value is 0.6 points.

**Q.** And the “Times less gastrotoxic than naproxen (UD50)” value (Wistar rats [3]; vs naproxen)?
**A.** Its value is 40 times.

**Q.** What about the UD50 (Wistar rats [3]; without sex distinction) of the same compound?
**A.** Its UD50 is >2000 mg/kg.

**Q.** What about the UD50 (Wistar rats [3]; without sex distinction, listed as compound of formula I) of the same compound?
**A.** Its UD50 is > 2000 mg/kg.
